# Earlier results as cited in patent publication US8957276B2 (priority 2009, dated 2015).
# Tested on: Rat
# Conditions: in vivo, po
row,Structure (SMILES),Acute toxicity (LD50)
1,[CH3][Hg][CH3] [(CH3)2Hg],26 mg/kg
2,[Cl][Hg].[Cl][Hg] [Hg2Cl2],210 mg/kg
3,"[Cl][Hg][Cl] [HgCl2, mercury chloride (II)]",1 mg/kg
4,[Cl][Hg] [HgCl],210 mg/kg
5,"[O]=[Hg] [HgO, mercury oxide]",18 mg/kg

# Tested on: Human
# Conditions: in vivo, po
row,Structure (SMILES),Acute toxicity (LD50)
1,"[Hg] [Hg, metallic mercury]",43 mg/kg
